From ChEMBL document CHEMBL2150933 (J Med Chem, 2012)
Activity calls are given as the source filed them. No cut-off for these calls is given here.

Experiments:
SK-OV-3 = experiment: Cytotoxicity against human SKOV3 cells after 48 hrs by SRB assay; format: functional; details: SK-OV-3, 48 h
KM12 = experiment: Cytotoxicity against human KM12 cells after 48 hrs by SRB assay; format: functional; details: KM12, 48 h
Mus musculus [1] = experiment: Toxicity in athymic nu/nu Harlan mouse xenografted with human COLO205 cells assessed as mortality at 20 mg/kg, iv administered Q3D for 10 days relative to control; format: organism-based, COLO 205; parameters: dose 20 mg/kg, route intravenous; details: in vivo, 240 h
DU-145 = experiment: Cytotoxicity against human DU145 cells after 48 hrs by SRB assay; format: functional; details: DU-145, 48 h
CCRF-CEM = experiment: Cytotoxicity against human CCRF-CEM cells after 48 hrs by SRB assay; format: functional
SK-MEL-28 = experiment: Cytotoxicity against human SK-MEL-28 cells after 48 hrs by SRB assay; format: functional; details: SK-MEL-28, 48 h
NCI-H23 = experiment: Cytotoxicity against human NCI-H23 cells after 48 hrs by SRB assay; format: functional; details: NCI-H23, 48 h
RXF 393 = experiment: Cytotoxicity against human RXF393 cells after 48 hrs by SRB assay; format: functional; details: RXF 393, 48 h
Mus musculus [2] = experiment: Toxicity in athymic nu/nu Harlan mouse xenografted with human COLO205 cells assessed as change in body weight at 20 mg/kg, iv administered Q3D for 10 days relative to control; format: organism-based, COLO 205; parameters: dose 20 mg/kg, route intravenous; details: in vivo, 240 h
HOP-62 = experiment: Cytotoxicity against human HOP62 cells after 48 hrs by SRB assay; format: functional; details: HOP-62, 48 h
LOX IMVI = experiment: Cytotoxicity against human LOXIMVI cells after 48 hrs by SRB assay; format: functional
[3] = Cytotoxicity against human NCI-ADR-RES cells after 48 hrs by SRB assay; format: functional
BXPC-3 = experiment: Cytotoxicity against human BxPC3 cells after 72 hrs by MTT assay; format: functional; details: BXPC-3, 72 h
U-251 = experiment: Cytotoxicity against human U251 cells after 48 hrs by SRB assay; format: functional; details: U-251, 48 h, read-out: pGI50 (converted)
HT-29 = experiment: Cytotoxicity against human HT-29 cells after 48 hrs by SRB assay; format: functional; details: HT-29, 48 h
SW-620 = experiment: Cytotoxicity against human SW620 cells after 48 hrs by SRB assay; format: functional; details: SW-620, 48 h
COLO 205 [4] = experiment: Cytotoxicity against human COLO205 cells after 72 hrs by MTT assay; format: functional; details: COLO 205, 72 h
UO-31 = experiment: Cytotoxicity against human UO31 cells after 48 hrs by SRB assay; format: functional; details: UO-31, 48 h
SNB-75 = experiment: Cytotoxicity against human SNB75 cells after 48 hrs by SRB assay; format: functional; details: SNB-75, 48 h
NCI-H226 = experiment: Cytotoxicity against human NCI-H226 cells after 48 hrs by SRB assay; format: functional; details: NCI-H226, 48 h
HCT-15 = experiment: Cytotoxicity against human HCT15 cells after 48 hrs by SRB assay; format: functional; details: HCT-15, 48 h
NCI-H522 = experiment: Cytotoxicity against human NCI-H522 cells after 48 hrs by SRB assay; format: functional; details: NCI-H522, 48 h
SF-295 = experiment: Cytotoxicity against human SF295 cells after 48 hrs by SRB assay; format: functional; details: SF-295, 48 h, read-out: pGI50 (converted)
SK-MEL-2 [5] = experiment: Antitumor activity against human SK-MEL-2 cells xenografted in athymic nu/nu Harlan mouse assessed as tumor growth inhibition at 10 mg/kg, iv administered Q2D for 10 days relative to control; format: functional, organism-based; parameters: dose 10 mg/kg
A498 = experiment: Cytotoxicity against human A498 cells after 48 hrs by SRB assay; format: functional; details: A498, 48 h
Mus musculus [6] = experiment: Toxicity in athymic nu/nu Harlan mouse xenografted with human SK-MEL-2 cells assessed as change in body weight at 10 mg/kg, iv administered Q2D for 10 days relative to control; format: organism-based; parameters: dose 10 mg/kg, route intravenous; details: in vivo, 240 h
Mus musculus [7] = experiment: Toxicity in iv dosed CD1 mouse administered Q3D for 8 days; format: organism-based; details: in vivo, 192 h
OVCAR-3 = experiment: Cytotoxicity against human OVCAR3 cells after 48 hrs by SRB assay; format: functional; details: OVCAR-3, 48 h
RPMI-8226 = experiment: Cytotoxicity against human RPMI8226 cells after 48 hrs by SRB assay; format: functional; details: RPMI-8226, 48 h
Hs-578T = experiment: Cytotoxicity against human Hs578T cells after 48 hrs by SRB assay; format: functional
SF-268 = experiment: Cytotoxicity against human SF268 cells after 48 hrs by SRB assay; format: functional; details: SF-268, 48 h
[8] = Cytotoxicity against human 786-O cells after 48 hrs by SRB assay; format: functional; details: 786-0, 48 h
Mus musculus [9] = experiment: Toxicity in athymic nu/nu Harlan mouse xenografted with human COLO205 cells assessed as change in body weight at 10 mg/kg, iv administered Q2D for 10 days relative to control; format: organism-based, COLO 205; parameters: dose 10 mg/kg, route intravenous; details: in vivo, 240 h
PC-3 = experiment: Cytotoxicity against human PC3 cells after 48 hrs by SRB assay; format: functional; details: PC-3, 48 h
HCT-116 = experiment: Cytotoxicity against human HCT116 cells after 48 hrs by SRB assay; format: functional; details: HCT-116, 48 h
EKVX = experiment: Cytotoxicity against human EKVX cells after 48 hrs by SRB assay; format: functional
SK-MEL-2 [10] = experiment: Antitumor activity against human SK-MEL-2 cells xenografted in athymic nu/nu Harlan mouse assessed as tumor growth inhibition at 20 mg/kg, iv administered Q3D for 10 days relative to control; format: functional, organism-based; parameters: dose 20 mg/kg
UACC-257 = experiment: Cytotoxicity against human UACC257 cells after 48 hrs by SRB assay; format: functional; details: UACC-257, 48 h
IGROV-1 = experiment: Cytotoxicity against human IGROV1 cells after 48 hrs by SRB assay; format: functional; details: IGROV-1, 48 h
SF-539 = experiment: Cytotoxicity against human SF539 cells after 48 hrs by SRB assay; format: functional; details: SF-539, 48 h
COLO 205 [11] = experiment: Antitumor activity against human COLO205 cells xenografted in athymic nu/nu Harlan mouse assessed as tumor growth inhibition at 20 mg/kg, iv administered Q3D for 10 days relative to control; format: functional, organism-based; parameters: dose 20 mg/kg
COLO 205 [12] = experiment: Cytotoxicity against human COLO205 cells after 48 hrs by SRB assay; format: functional; details: COLO 205, 48 h, read-out: pGI50 (converted)
A549 = experiment: Cytotoxicity against human A549 cells after 72 hrs by MTT assay; format: functional; details: A549, 72 h
MOLT-4 = experiment: Cytotoxicity against human MOLT4 cells after 48 hrs by SRB assay; format: functional; details: MOLT-4, 48 h
BT-549 = experiment: Cytotoxicity against human BT549 cells after 48 hrs by SRB assay; format: functional; details: BT-549, 48 h
Malme-3M = experiment: Cytotoxicity against human MALME-3M cells after 48 hrs by SRB assay; format: functional
HOP-92 = experiment: Cytotoxicity against human HOP92 cells after 48 hrs by SRB assay; format: functional; details: HOP-92, 48 h

For `CO[C@@H]([C@@H]1Cc2cc3cc(O[C@H]4C[C@@H](O[C@H]5C[C@@H](O)[C@H](O)[C@@H](C)O5)[C@H](O)[C@@H](C)O4)c(C)c(O)c3c(O)c2C(=O)[C@H]1O[C@H]1C[C@@H](O[C@H]2C[C@@H](O[C@H]3C[C@H](O)[C@H](O)[C@@H](C)O3)[C@H](O)[C@@H](C)O2)[C@H](O)[C@@H](C)O1)[C@@H](O)C(C)=O`, the GI50 (SK-OV-3) was 26.3 nM, the GI50 (KM12) was 17.8 nM and the Activity (Mus musculus [1]) was “Non-toxic”. The GI50 (DU-145) was 20.4 nM, the GI50 (CCRF-CEM) was 24.6 nM and the GI50 (SK-MEL-28) was 18.6 nM. The GI50 (NCI-H23) was 22.4 nM, the GI50 (RXF 393) was 29.5 nM and the Activity (Mus musculus [2]) was “Non-toxic”. For the same compound, the GI50 (HOP-62) was 24.6 nM, the GI50 (LOX IMVI) was 16.6 nM and the GI50 [3] was 50100 nM. It also gave a GI50 (BXPC-3) of 300 nM, a GI50 (U-251) of 18.6 nM and a GI50 (HT-29) of 21.4 nM. The GI50 (SW-620) was 22.4 nM, the GI50 (COLO 205 [4]) was 300 nM and the GI50 (UO-31) was 69.2 nM. It also gave a GI50 (SNB-75) of 32.4 nM, a GI50 (NCI-H226) of 20.4 nM and a GI50 (HCT-15) of 1050 nM. The GI50 (NCI-H522) was 17.8 nM, the GI50 (SF-295) was 19.9 nM and the TGI (SK-MEL-2 [5]) was “Active”. For the same compound, the GI50 (A498) was 14.4 nM, the Activity (Mus musculus [6]) was “Non-toxic” and the MTD (Mus musculus [7]) was 24 mg/kg. It also gave a GI50 (OVCAR-3) of 19.5 nM, a GI50 (RPMI-8226) of 16.2 nM and a GI50 (Hs-578T) of 16.2 nM. The GI50 (SF-268) was 22.4 nM, the GI50 [8] was 32.4 nM and the Activity (Mus musculus [9]) was “Non-toxic”. For the same compound, the GI50 (PC-3) was 21.4 nM, the GI50 (HCT-116) was 16.6 nM and the GI50 (EKVX) was 85.1 nM. The TGI (SK-MEL-2 [10]) was “Active”, the GI50 (UACC-257) was 41.7 nM and the GI50 (IGROV-1; read-out: GI50) was 10 nM. For the same compound, the GI50 (IGROV-1; read-out: pGI50 (converted)) was 10.5 nM, the GI50 (SF-539) was 25.1 nM and the TGI (COLO 205 [11]) was “Active”. For the same compound, the GI50 (COLO 205 [12]) was 21.4 nM, the GI50 (A549) was 300 nM and the GI50 (MOLT-4) was 19.9 nM. The GI50 (BT-549) was 18.2 nM, the GI50 (Malme-3M) was 19.5 nM and the GI50 (HOP-92) was 26.9 nM.
